These results are taken from US20130109682A1, “CYCLIC ETHER COMPOUNDS USEFUL AS KINASE INHIBITORS” (NOVARTIS AG, priority 2010, published 2013).

Test [1] has as its target PIM3 (Homo sapiens, UniProt Q86V86). The experiment in a line: KinaseGlo Pim3 ATP depletion assay. It counts as biochemical. Summed up:
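Residual ATP was detected by luciferase luminescence once about half had been consumed. The reaction contained 5 nM enzyme, 100 μM BAD peptide (RSRHSSYPAGT) and 40 μM ATP in 50 mM HEPES pH 7.5, 5 mM MgCl2, 1 mM DTT and 0.05% BSA with 2.5% DMSO. Compound and enzyme/peptide were premixed 15 min before ATP.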
(In general: Kinase-Glo measures the ATP left after a reaction by luminescence.)

The target of test [2] is GSK3β (Homo sapiens, UniProt P49841). Put plainly: GSK3β ATP depletion assay. As to conditions: read-out: GSK3b IC50. It counts as biochemical. In a few lines:
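Kinase activity is read as ATP consumption: luciferase luminescence reports the ATP remaining once roughly half of the 2 μM ATP is used. Reaction mix: 5 nM GSK3β, 10 μM b-CREB peptide, 50 mM Tris pH 7.5, 15 mM MgCl2, 1 mM DTT, 0.1% BSA, 2.5% DMSO. Enzyme and peptide are preincubated 15 min before ATP is added.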

Test [3] relates to KMS11 (human myeloma cell line). Put plainly: Cell proliferation assay (CellTiter-Glo), KMS11. It counts as cell-based. Particulars: Homo sapiens, KMS-11; KMS11-Luc cells. Summed up: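 EC50 derived from CellTiter-Glo luminescence after 3-day exposure at 37° C. Compound was diluted to 2× in medium and added to an equal volume of cells. KMS11 myeloma cells were plated on assay day at 2000/well in IMDM with 10% FBS and sodium pyruvate.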

Test [4] concerns the target PIM2 (Homo sapiens, UniProt Q9P1W9). Put plainly: KinaseGlo Pim2 ATP depletion assay. It counts as biochemical. In a few lines: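 Compound sat 15 min with enzyme and BAD peptide before ATP was added; final levels 5 nM PIM2, 10 μM peptide, 4 μM ATP, 2.5% DMSO, pH 7.5 HEPES buffer with MgCl2, DTT, BSA. Stopped near 50% ATP consumption; remaining ATP measured by luciferase luminescence.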

Test [5] concerns the target PIM1 (Homo sapiens, UniProt P11309). The experiment in a line: KinaseGlo Pim1 ATP depletion assay. It counts as biochemical. Summed up: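 IC50 is derived from residual ATP measured by KinaseGlo Plus luminescence once about half the ATP was consumed. Final conditions were 20 μM ATP, 40 μM BAD peptide and 2.5 nM kinase in HEPES pH 7.5 buffer with MgCl2, DTT and BSA, plus 2.5% DMSO. Compound and enzyme were premixed 15 min before ATP addition.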

Chain of PIM2 (Q9P1W9 whole entry): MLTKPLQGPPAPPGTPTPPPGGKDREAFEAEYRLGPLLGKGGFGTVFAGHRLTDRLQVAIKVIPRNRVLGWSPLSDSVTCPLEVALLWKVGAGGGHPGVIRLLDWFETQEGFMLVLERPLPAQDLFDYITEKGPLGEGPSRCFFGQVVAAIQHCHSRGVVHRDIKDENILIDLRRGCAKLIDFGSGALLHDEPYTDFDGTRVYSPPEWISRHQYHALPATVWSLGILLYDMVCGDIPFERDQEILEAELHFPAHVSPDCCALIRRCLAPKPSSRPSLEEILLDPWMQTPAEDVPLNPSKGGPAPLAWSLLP
Chain of PIM1 (P11309 whole entry): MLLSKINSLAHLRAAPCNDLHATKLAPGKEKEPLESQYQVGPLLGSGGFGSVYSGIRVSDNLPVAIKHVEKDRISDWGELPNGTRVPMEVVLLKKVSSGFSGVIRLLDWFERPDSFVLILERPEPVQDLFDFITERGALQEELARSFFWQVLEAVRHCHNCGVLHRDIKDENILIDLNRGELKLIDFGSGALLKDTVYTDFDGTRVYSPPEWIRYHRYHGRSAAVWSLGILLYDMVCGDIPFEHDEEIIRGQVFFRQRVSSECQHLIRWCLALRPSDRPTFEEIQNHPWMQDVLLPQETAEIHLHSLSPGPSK
Chain of GSK3β (P49841 whole entry, species assumed): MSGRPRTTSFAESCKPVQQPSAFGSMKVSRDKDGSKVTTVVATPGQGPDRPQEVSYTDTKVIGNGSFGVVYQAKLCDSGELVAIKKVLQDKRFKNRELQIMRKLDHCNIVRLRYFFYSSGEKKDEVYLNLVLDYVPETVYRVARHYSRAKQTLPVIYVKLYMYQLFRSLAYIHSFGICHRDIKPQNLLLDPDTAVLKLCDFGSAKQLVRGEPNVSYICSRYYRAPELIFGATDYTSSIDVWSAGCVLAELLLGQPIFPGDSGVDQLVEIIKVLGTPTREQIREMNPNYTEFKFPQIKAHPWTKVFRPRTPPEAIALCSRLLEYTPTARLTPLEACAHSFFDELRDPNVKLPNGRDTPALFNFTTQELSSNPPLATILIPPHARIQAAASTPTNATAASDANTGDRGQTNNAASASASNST

Consider `NC(=O)C[C@H]1O[C@@H](c2ccncc2NC(=O)c2ccc(F)c(-c3c(F)cccc3F)n2)C[C@@H](O)[C@@H]1O` [Example 142, N-(4-((2R,4R,5S,6R)-6-(2-amino-2-oxoethyl)-4,5-dihydroxytetrahydro-2H-pyran-2-yl)pyridin-3-yl)-6-(2,6-difluorophenyl)-5-fluoropicolinamide], for which the half-inhibitory concentration (IC50) in test [1] was 890 nM; in test [2], more than 25000 nM; in test [4] it was 6600 nM; in test [5], 1080 nM. Also, the EC50 in test [3] is more than 10 µM.

Turning to `CC[C@H]1O[C@@H](c2ccncc2NC(=O)c2csc(-c3c(F)cccc3F)n2)C[C@@H](O)[C@@H]1O` [Example 41, 2-(2,6-difluorophenyl)-N-(4-((2R,4R,5S,6R)-6-ethyl-4,5-dihydroxytetrahydro-2H-pyran-2-yl)pyridin-3-yl)thiazole-4-carboxamide], the IC50 was found to be 7 nM in test [1], 17 nM in test [2], 65 nM in test [4] and 1 nM in test [5]. The same compound returned an EC50 in test [3] of 9.9 µM.

On to `C[C@H]1[C@H](C)O[C@H](c2ccncc2NC(=O)c2csc(-c3c(F)cccc3F)n2)C[C@@H]1O` (stereo in doubt) [Example 94, 2-(2,6-difluorophenyl)-N-(4-((2S,4S,5R,6S)-4-hydroxy-5,6-dimethyltetrahydro-2H-pyran-2-yl)pyridin-3-yl)thiazole-4-carboxamide], for which the IC50 in test [1] was 9 nM; in test [2], 11 nM; in test [4], 246 nM; in test [5] it was 1 nM. Also, a half-maximal effect in test [3] (EC50) was put at 4.2 µM.

Consider `CC[C@H]1O[C@@H](c2ccncc2NC(=O)c2c[nH]cc(-c3ccccc3F)c2=O)C[C@@H](O)[C@@H]1O` [Example 202, N-(4-((2R,4R,5S,6R)-6-ethyl-4,5-dihydroxytetrahydro-2H-pyran-2-yl)pyridin-3-yl)-5-(2-fluorophenyl)-4-oxo-1,4-dihydropyridine-3-carboxamide], for which the IC50 in test [1] was determined as 1100 nM; in test [2] it was 4400 nM; in test [4], 6910 nM; in test [5], 754 nM. The EC50 in test [3] is more than 10 µM.

In the case of `CC1C(c2ccncc2NC(=O)c2ccc(F)c(-c3c(F)cccc3F)n2)OC(C)[C@@H](O)C1O` (stereo in doubt) [Example 67, 6-(2,6-difluorophenyl)-N-(4-((2R,3S,4R,5S,6R)-4,5-dihydroxy-3,6-dimethyltetrahydro-2H-pyran-2-yl)pyridin-3-yl)-5-fluoropicolinamide], the 50% inhibitory concentration (IC50) stood at 22 nM in test [1], 984 nM in test [2], 300 nM in test [4] and 4 nM in test [5]. The EC50 in test [3] was more than 10 µM.

As to `C=C[C@H]1OC(c2ccncc2NC(=O)c2nc(-c3ccccc3F)c(F)cc2N)=C[C@@H](O)[C@@H]1O` [Example 24, 3-amino-N-(4-((2R,3S,4R)-3,4-dihydroxy-2-vinyl-3,4-dihydro-2H-pyran-6-yl)pyridin-3-yl)-5-fluoro-6-(2-fluorophenyl)picolinamide], the concentration for half-maximal inhibition (IC50) came out at 4 nM in test [1], 177 nM in test [2], 7 nM in test [4] and 1 nM in test [5]. Besides, the EC50 in test [3] was determined as 7.37 µM.

`O=C(Nc1cnccc1[C@H]1OC[C@H](CO)O1)c1ccc(F)c(-c2c(F)cccc2F)n1` [Example 101, 6-(2,6-difluorophenyl)-5-fluoro-N-(4-((2S,4S)-4-(hydroxymethyl)-1,3-dioxolan-2-yl)pyridin-3-yl)picolinamide]: the half-maximal inhibitory concentration (IC50) stood at 68 nM in test [1], 2600 nM in test [2], 1340 nM in test [4] and 12 nM in test [5]. Further, the half-maximal effective concentration (EC50) in test [3] is more than 10 µM.

Regarding `O=C(Nc1cnccc1C1OCCCO1)c1ccc(F)c(-c2c(F)cccc2F)n1` [Example 118, N-(4-(1,3-dioxan-2-yl)pyridin-3-yl)-6-(2,6-difluorophenyl)-5-fluoropicolinamide], the IC50 was 17 nM in test [1], 3520 nM in test [2], 363 nM in test [4] and 4 nM in test [5]. For the same compound, the EC50 in test [3] is more than 10 µM.

In the case of `O=C(Nc1cnccc1[C@H]1C[C@@H](O)CCO1)c1csc(-c2c(F)cccc2F)n1` [Example 131, 2-(2,6-difluorophenyl)-N-(4-((2R,4S)-4-hydroxytetrahydro-2H-pyran-2-yl)pyridin-3-yl)thiazole-4-carboxamide], the IC50 came to 22 nM in test [1], 216 nM in test [2], 1110 nM in test [4] and 3 nM in test [5]. The compound also displayed a concentration for a half-maximal effect (EC50) in test [3] of more than 10 µM.

In the case of `CC[C@H]1O[C@@H](c2ccncc2NC(=O)c2nc(-c3c(F)cccc3F)ncc2N)C[C@@H](O)[C@@H]1O` [Example 18, 5-amino-2-(2,6-difluorophenyl)-N-(4-((2R,4R,5S,6R)-6-ethyl-4,5-dihydroxytetrahydro-2H-pyran-2-yl)pyridin-3-yl)pyrimidine-4-carboxamide], the IC50 in test [1] turned out to be 5 nM; in test [2], 191 nM; in test [4], 5 nM; in test [5], 3 nM. Moreover, a half-maximal response in test [3] (EC50) required 5.71 µM.

On to `O=C(Nc1cnccc1[C@H]1C[C@@H](O)[C@H](O)[C@@H](C2CC2)O1)c1cccc(-c2c(F)cccc2F)n1` [Example 208, N-(4-((2R,4R,5S,6R)-6-cyclopropyl-4,5-dihydroxytetrahydro-2H-pyran-2-yl)pyridin-3-yl)-6-(2,6-difluorophenyl)picolinamide], for which the IC50 was determined as 6.6 nM in test [1], 796 nM in test [2], 8.8 nM in test [4] and 4.6 nM in test [5]. This compound also had an EC50 in test [3] of more than 10 µM.

As for `Nc1cnc(-c2c(F)cccc2F)nc1C(=O)Nc1cnccc1[C@@H]1C[C@H](O)[C@]2(O)CCCC[C@@H]2O1` [Example 175, 5-amino-2-(2,6-difluorophenyl)-N-(4-((2S,4S,4aR,8aS)-4,4a-dihydroxyoctahydro-2H-chromen-2-yl)pyridin-3-yl)pyrimidine-4-carboxamide], the IC50 amounted to 57.4 nM in test [1], 598 nM in test [2], 58.7 nM in test [4] and 35.7 nM in test [5]. This compound also displayed a concentration for a half-maximal effect (EC50) in test [3] of more than 10 µM.

For the compound `C[C@H]1O[C@@H](c2ccncc2NC(=O)c2ccc(F)c(-c3c(F)cccc3F)n2)[C@H](F)C(=O)[C@]1(C)O` [Example 72, 6-(2,6-difluorophenyl)-5-fluoro-N-(4-((2S,3S,5R,6R)-3-fluoro-5-hydroxy-5,6-dimethyl-4-oxotetrahydro-2H-pyran-2-yl)pyridin-3-yl)picolinamide], the IC50 in test [1] amounted to 6 nM; in test [2], 385 nM; in test [4], 15 nM; in test [5], 1 nM. In test [3], this compound gave a 50% effective concentration (EC50) of 1.5 µM.

For `O=C(Nc1cnccc1[C@H]1OCC[C@@H](CO)O1)c1csc(-c2c(F)cccc2F)n1` [Example 102, 2-(2,6-difluorophenyl)-N-(4-((2S,4S)-4-(hydroxymethyl)-1,3-dioxan-2-yl)pyridin-3-yl)thiazole-4-carboxamide], the half-inhibitory concentration (IC50) in test [1] was 103 nM; in test [2] it was 2000 nM; in test [4] it was 2890 nM; in test [5], 28 nM. Further, in test [3], the concentration giving a half-maximal response (EC50) is more than 10 µM.

For `O=C(Nc1cnccc1[C@H]1C[C@@H](O)CC2(CC2)O1)c1ccc(F)c(-c2c(F)cccc2F)n1` [Example 59, 6-(2,6-difluorophenyl)-5-fluoro-N-(4-((5R,7R)-7-hydroxy-4-oxaspiro[2.5]octan-5-yl)pyridin-3-yl)picolinamide], the IC50 worked out at 14 nM in test [1], 757 nM in test [2], 162 nM in test [4] and 6 nM in test [5]. This compound also had a concentration giving a half-maximal response (EC50) in test [3] of more than 10 µM.

Take `O=C(Nc1cnccc1[C@@H]1C[C@H](O)[C@]2(O)CCC[C@@H]2O1)c1c[nH]cc(-c2ccccc2)c1=O` [Example 184, N-(4-((2S,4S,4aR,7aS)-4,4a-dihydroxyoctahydrocyclopenta[b]pyran-2-yl)pyridin-3-yl)-4-oxo-5-phenyl-1,4-dihydropyridine-3-carboxamide]: the IC50 in test [1], in test [2], in test [4] and in test [5] was more than 25000 nM throughout. In addition, in test [3], the EC50 is more than 10 µM.

`N#C[C@H]1O[C@@H](c2ccncc2NC(=O)c2ccnc(-c3c(F)cccc3F)n2)C[C@@H](O)[C@@H]1O` [Example 149, N-(4-((2R,4R,5S,6R)-6-cyano-4,5-dihydroxytetrahydro-2H-pyran-2-yl)pyridin-3-yl)-2-(2,6-difluorophenyl)pyrimidine-4-carboxamide]: the IC50 was 143 nM in test [1], 209 nM in test [2], 458 nM in test [4] and 79.8 nM in test [5]. The compound also came in with an EC50 in test [3] of more than 10 µM.

In general, IC50 refers to the concentration that gives 50% inhibition. The EC50 is the concentration at which the effect is half-maximal. A high value points to a need for much substance.
